Assay results reported in patent US20130237485A1, “Methods and Agents for Enhancing Wound Healing” (UNIVERSITY OF SOUTHERN CALIFORNIA, priority 2010, published 2013).

Key:
RDEB keratinocytes = test: Immunoblot (anti-NC1 antibody) for full-length C7 in RDEB keratinocytes treated with aminoglycosides; type: cell-based, human; conditions: for read-through / full-length C7 production: 48 h, G418 8 μg/mL, gentamicin 200 μg/mL, paromomycin 200 μg/mL, amikacin 1 mg/mL, PTC 124 20 μg/mL, EB5K and DG16 keratinocytes, FIG. 1; for sustained C7 production: G418 8 μg/mL or gentamicin 200 μg/mL, lysed at 3, 5, or 8 days following treatment, FIG. 3; for dose dependence of full-length C7 production: varying concentrations, EB5K and DG16 lines, FIG. 2
Protocol: RDEB keratinocytes were treated for 48 h with either G418 (8 μg/mL), gentamicin (200 μg/mL), paromomcyin (200 μg/mL), amikacin (1 mg/mL), or PTC 124 (20 μg/mL). Cells were subsequently lysed and subjected to immunoblot analysis with anti-NC1 antibody or anti-β-tubulin antibody (loading control).
RDEB keratinocytes were treated with varying concentrations of G418 and Gentamicin. Cells were lysed and subjected to immunoblot analysis with an anti-NC1 or anti-β-tubulin antibody (loading control).
EB5K and D016 keratinocytes were treated with G418 (8 μg/mL) or gentamicin (200 μg/mL). Cells were lysed at 3, 5, or 8 days following treatment and subjected to immunoblot analysis with an anti-NC1 or anti-β-tubulin antibody.

[1] = test system: EB5K and DG16 keratinocytes; test: Colloidal gold salt migration assay using collagen I as a matrix; type: cell-based; conditions: G418 8 μg/mL or gentamicin 200 μg/mL for 48 h; compared with normal human keratinocytes (IKC); FIG. 5
Protocol: In FIG. 5A, keratinocytes were either untreated or treated with G418 (8 μg/mL) or gentamicin (200 μg/mL) for 48 h and then subjected to colloidal gold salt migration assay using collagen I as a matrix. Representative fields were photographed at 40× under dark field optics. In FIG. 5B, migration index expresses the percentage of the total field area consumed by the migration tracks. Error bars, SD of three different experiments.

[2] = test system: DG16 and EB5K keratinocytes; test: Immunofluorescence staining for C7 with polyclonal anti-NC1 antibody; type: cell-based, human; conditions: G418 8 μg/mL or gentamicin 200 μg/mL, FIG. 4
From the text: Normal human keratinocytes (IKC) were stained in parallel. […] In contrast, untreated parent keratinocytes entirely lacked C7expression.

[3] = test system: Human epithelial (293 cells) transfected with nonsense mutation constructs; test: Immunoblot (anti-NC1 antibody) of 293 cells transfected with COL7A1 nonsense mutation constructs; type: cell-based; conditions: 293 cells with mutant constructs; for PTC read-through and full-length C7 production: G418 8 μg/mL or gentamicin 200 μg/mL for 48 h, FIG. 7
Protocol: For experimentation with cells containing different nonsense mutation in the COL7A1 gene, we used a C7 expression vector to introduce 30 nonsense mutations associated with RDEB via site-directed mutagenesis.
Human epithelial (293 cells) transfected with nonsense mutation constructs were treated with (FIG. 7A) G418 (8 μg/mL) and (FIG. 7B) gentamicin (200 μg/mL) for 48 h, lysed, and subjected to immunoblot analysis with an anti-NC1 antibody or anti-β-tubulin antibody (loading control).
In FIG. 8B, 293 cells transfected with the indicated mutant constructs were either untreated or treated with G418 (8 μg/mL) for 48 h, lysed and subjected to immunoblot analysis using an anti-NC1 antibody or anti-β-tubulin antibody (loading control).

Molecule	read-through / full-length C7 production (RDEB keratinocytes)	keratinocyte hypermotility (migration index) [1]	C7 staining (immunofluorescence) [2]	sustained C7 production (RDEB keratinocytes)	dose dependence of full-length C7 production (RDEB keratinocytes)	levels of truncated and full-length C7 production compared to untreated cells ([3]; G418 8 μg/mL for 48 h, FIG. 8B)	PTC read-through and full-length C7 production [3]
NCC[C@H](O)C(=O)N[C@@H]1C[C@H](N)[C@@H](O[C@H]2O[C@H](CN)[C@@H](O)[C@H](O)[C@H]2O)[C@H](O)[C@H]1O[C@H]1O[C@H](CO)[C@@H](O)[C@H](N)[C@H]1O [Amikacin, amikacin]	did not cause read-through in either keratinocyte line						
NC[C@@H]1O[C@H](O[C@H]2[C@@H](O)[C@H](O[C@@H]3[C@@H](O)[C@H](N)C[C@H](N)[C@H]3O[C@H]3O[C@H](CO)[C@@H](O)[C@H](O)[C@H]3N)O[C@@H]2CO)[C@H](N)[C@@H](O)[C@@H]1O [Paromomycin, paromomycin]	induced read-through in DG16 cells only						
CN[C@@H]1[C@@H](O)[C@@H](O[C@@H]2[C@@H](O)[C@H](O[C@H]3O[C@H]([C@@H](C)O)[C@@H](O)[C@H](O)[C@H]3N)[C@@H](N)C[C@H]2N)OC[C@]1(C)O [G418]	induced full-length C7 production in both EB5K and DG16 keratinocytes	reversed their hypermotility phenotype to normal	demonstrated C7 staining	induced sustained C7 production	induced full-length C7 production in a dose-dependent manner in both EB5K and DG16 lines	significantly higher levels of truncated and full-length C7 production	induced PTC read-through and full-length C7 production
O=C(O)c1cccc(-c2noc(-c3ccccc3F)n2)c1 [PTC124, PTC 124]	did not cause read-through in either keratinocyte line						
gentamicin	induced full-length C7 production in both EB5K and DG16 keratinocytes	reversed their hypermotility phenotype to normal	demonstrated C7 staining	induced sustained C7 production	induced full-length C7 production in a dose-dependent manner in both EB5K and DG16 lines		induced PTC read-through and full-length C7 production
